Holding throughout (type): biochemical
One experiment deals with T1, JAK3 (Homo sapiens, UniProt P52333).
T1 construct: purchased Invitrogen
T1 sequence (P52333 1-1124): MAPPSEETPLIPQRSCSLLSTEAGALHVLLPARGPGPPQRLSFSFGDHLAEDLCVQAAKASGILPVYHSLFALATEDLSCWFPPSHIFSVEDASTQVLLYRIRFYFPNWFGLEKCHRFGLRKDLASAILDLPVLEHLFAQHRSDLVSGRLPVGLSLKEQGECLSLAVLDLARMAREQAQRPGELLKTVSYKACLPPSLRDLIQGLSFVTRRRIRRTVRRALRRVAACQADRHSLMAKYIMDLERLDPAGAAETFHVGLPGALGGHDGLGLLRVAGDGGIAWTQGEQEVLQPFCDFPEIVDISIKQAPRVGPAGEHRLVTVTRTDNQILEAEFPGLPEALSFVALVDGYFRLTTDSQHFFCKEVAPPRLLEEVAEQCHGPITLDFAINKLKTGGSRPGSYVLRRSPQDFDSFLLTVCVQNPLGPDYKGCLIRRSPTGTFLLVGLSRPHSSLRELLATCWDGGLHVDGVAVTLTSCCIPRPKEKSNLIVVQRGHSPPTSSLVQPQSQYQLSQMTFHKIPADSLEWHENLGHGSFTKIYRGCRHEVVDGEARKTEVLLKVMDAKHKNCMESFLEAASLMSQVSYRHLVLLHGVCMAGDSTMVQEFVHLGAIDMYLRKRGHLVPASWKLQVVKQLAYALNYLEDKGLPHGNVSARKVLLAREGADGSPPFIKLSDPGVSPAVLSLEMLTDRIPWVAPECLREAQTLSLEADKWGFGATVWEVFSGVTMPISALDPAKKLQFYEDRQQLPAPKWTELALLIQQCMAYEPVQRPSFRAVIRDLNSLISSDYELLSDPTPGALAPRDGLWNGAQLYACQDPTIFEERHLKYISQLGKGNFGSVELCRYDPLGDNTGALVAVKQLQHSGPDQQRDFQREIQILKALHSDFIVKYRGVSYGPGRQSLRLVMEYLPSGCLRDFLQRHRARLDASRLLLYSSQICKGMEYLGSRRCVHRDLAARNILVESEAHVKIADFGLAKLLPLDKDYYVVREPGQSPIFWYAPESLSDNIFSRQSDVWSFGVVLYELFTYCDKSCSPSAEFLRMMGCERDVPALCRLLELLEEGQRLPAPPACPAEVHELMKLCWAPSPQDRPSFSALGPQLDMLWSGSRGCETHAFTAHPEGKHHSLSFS
As to the kind of experiment: JAK3 enzyme inhibition test (LANCE method). Conditions: 1 μM test compound; read-out: JAK3 enzyme inhibitory activity (%, 1 μM). Put shortly: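 Recombinant JAK3 (12 ng/mL solution) with ULight-JAK1 peptide (300 nM solution) and ATP (15 μM solution) in HEPES pH 7.5 buffer, 1 h at room temperature. EDTA stop with Eu-anti-phosphotyrosine antibody; TR-FRET at 665 nm. Inhibition relative to enzyme-free wells as 100%.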
For orientation: In TR-FRET formats the signal depends on donor and acceptor labels being close together.

A further experiment has as its target T2, TYK2 (Homo sapiens, UniProt P29597).
T2 construct: purchased Invitrogen
As to the kind of experiment: TYK2 enzyme inhibition test (LANCE method). Conditions: 1 μM test compound; read-out: TYK2 enzyme inhibitory activity (%, 1 μM). Put shortly:
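Recombinant TYK2 (375 ng/mL working solution) with ULight-JAK1 peptide (300 nM working solution) and ATP (30 μM working solution) in HEPES pH 7.5 buffer with MgCl2, EGTA, DTT, Tween20, BSA, reacted 1 h at RT. EDTA-stopped, Eu-anti-phosphotyrosine TR-FRET read at 665 nm; inhibition relative to enzyme-free wells as 100%.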

The target in a further experiment is T3, JAK1 (Homo sapiens, UniProt P23458).
T3 construct: purchased Invitrogen
As to the kind of experiment: JAK1 enzyme inhibition test (LANCE method). The conditions noted are these: 1 μM test compound; read-out: JAK1 enzyme inhibitory activity (%, 1 μM). Put shortly:
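TR-FRET (LANCE) with ULight-JAK1 peptide (300 nM working solution) and ATP (150 μM working solution) in HEPES pH 7.5, MgCl2, EGTA, DTT buffer; 1 h at room temperature. EDTA stop plus Eu-anti-phosphotyrosine antibody, 665 nm read after 1 h. Inhibition relative to enzyme-free wells as 100%.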

Another experiment deals with T4, JAK2 (Homo sapiens, UniProt O60674).
T4 construct: purchased Invitrogen
As to the kind of experiment: JAK2 enzyme inhibition test (LANCE method). Conditions: 1 μM test compound; read-out: JAK2 enzyme inhibitory activity (%, 1 μM). Put shortly: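 Recombinant JAK2 (6 ng/mL solution) phosphorylated ULight-JAK1 peptide (300 nM solution) with ATP (45 μM solution) in pH 7.5 HEPES/MgCl2/DTT buffer for 1 hr at room temperature. After EDTA stop and europium anti-phosphotyrosine antibody for 1 hr, TR-FRET read at 665 nm; inhibition relative to enzyme-free wells as 100%.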

T3 sequence (P23458 whole entry): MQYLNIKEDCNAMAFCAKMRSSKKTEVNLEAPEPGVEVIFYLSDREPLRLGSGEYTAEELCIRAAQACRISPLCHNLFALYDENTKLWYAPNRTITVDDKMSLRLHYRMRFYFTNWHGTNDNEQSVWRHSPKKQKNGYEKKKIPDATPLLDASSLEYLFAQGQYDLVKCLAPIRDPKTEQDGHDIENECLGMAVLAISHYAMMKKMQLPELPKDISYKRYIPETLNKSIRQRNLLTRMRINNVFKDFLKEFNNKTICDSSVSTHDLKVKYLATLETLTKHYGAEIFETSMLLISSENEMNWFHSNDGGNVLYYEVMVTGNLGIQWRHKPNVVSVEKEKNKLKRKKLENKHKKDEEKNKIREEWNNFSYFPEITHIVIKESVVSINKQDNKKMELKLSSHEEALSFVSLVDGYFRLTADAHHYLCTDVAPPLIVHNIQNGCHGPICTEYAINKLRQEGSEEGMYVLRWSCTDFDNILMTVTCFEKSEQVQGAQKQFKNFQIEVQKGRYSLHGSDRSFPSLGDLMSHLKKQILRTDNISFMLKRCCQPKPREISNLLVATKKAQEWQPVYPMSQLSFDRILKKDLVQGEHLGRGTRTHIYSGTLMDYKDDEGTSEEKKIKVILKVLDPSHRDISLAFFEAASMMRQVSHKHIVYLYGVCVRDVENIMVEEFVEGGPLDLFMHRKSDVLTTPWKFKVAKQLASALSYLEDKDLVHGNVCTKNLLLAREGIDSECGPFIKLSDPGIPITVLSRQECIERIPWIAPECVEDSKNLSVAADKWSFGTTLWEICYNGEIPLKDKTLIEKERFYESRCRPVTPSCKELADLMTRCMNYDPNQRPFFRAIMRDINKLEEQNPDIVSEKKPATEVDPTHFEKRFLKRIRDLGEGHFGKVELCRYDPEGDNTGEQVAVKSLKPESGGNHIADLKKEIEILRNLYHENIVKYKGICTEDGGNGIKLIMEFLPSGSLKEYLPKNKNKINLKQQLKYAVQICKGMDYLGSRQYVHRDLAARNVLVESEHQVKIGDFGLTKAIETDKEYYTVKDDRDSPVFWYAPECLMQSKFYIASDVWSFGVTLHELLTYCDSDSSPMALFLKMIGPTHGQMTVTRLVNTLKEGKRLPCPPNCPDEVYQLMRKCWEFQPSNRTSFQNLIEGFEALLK
T4 sequence (O60674 whole entry): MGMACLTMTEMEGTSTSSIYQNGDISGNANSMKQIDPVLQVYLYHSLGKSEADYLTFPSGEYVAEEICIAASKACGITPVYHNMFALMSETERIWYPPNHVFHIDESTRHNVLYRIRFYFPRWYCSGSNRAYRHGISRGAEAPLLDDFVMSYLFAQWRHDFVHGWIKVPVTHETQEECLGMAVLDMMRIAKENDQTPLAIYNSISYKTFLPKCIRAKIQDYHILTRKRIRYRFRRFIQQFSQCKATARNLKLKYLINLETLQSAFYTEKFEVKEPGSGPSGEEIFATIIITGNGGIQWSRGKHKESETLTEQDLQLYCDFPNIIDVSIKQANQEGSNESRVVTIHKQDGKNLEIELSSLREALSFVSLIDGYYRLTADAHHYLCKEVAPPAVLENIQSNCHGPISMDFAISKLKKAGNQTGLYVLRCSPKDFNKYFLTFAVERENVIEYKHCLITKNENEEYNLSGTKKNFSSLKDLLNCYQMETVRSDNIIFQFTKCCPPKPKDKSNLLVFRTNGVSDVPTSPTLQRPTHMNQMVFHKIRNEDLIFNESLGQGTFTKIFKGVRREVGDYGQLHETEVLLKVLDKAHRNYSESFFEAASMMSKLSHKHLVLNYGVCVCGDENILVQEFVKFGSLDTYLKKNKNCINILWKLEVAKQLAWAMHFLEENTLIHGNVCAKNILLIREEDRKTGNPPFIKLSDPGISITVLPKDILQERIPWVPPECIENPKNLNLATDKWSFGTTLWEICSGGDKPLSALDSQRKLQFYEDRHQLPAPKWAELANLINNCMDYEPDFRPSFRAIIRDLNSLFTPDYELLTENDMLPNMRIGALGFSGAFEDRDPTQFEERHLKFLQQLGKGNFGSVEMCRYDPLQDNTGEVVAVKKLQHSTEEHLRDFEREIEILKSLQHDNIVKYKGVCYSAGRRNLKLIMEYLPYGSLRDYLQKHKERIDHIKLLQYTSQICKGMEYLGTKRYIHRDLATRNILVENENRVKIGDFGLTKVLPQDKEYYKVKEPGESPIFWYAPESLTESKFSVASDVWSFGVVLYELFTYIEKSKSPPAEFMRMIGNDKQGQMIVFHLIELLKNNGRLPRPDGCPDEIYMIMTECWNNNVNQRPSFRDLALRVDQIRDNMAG
T2 sequence (P29597 whole entry): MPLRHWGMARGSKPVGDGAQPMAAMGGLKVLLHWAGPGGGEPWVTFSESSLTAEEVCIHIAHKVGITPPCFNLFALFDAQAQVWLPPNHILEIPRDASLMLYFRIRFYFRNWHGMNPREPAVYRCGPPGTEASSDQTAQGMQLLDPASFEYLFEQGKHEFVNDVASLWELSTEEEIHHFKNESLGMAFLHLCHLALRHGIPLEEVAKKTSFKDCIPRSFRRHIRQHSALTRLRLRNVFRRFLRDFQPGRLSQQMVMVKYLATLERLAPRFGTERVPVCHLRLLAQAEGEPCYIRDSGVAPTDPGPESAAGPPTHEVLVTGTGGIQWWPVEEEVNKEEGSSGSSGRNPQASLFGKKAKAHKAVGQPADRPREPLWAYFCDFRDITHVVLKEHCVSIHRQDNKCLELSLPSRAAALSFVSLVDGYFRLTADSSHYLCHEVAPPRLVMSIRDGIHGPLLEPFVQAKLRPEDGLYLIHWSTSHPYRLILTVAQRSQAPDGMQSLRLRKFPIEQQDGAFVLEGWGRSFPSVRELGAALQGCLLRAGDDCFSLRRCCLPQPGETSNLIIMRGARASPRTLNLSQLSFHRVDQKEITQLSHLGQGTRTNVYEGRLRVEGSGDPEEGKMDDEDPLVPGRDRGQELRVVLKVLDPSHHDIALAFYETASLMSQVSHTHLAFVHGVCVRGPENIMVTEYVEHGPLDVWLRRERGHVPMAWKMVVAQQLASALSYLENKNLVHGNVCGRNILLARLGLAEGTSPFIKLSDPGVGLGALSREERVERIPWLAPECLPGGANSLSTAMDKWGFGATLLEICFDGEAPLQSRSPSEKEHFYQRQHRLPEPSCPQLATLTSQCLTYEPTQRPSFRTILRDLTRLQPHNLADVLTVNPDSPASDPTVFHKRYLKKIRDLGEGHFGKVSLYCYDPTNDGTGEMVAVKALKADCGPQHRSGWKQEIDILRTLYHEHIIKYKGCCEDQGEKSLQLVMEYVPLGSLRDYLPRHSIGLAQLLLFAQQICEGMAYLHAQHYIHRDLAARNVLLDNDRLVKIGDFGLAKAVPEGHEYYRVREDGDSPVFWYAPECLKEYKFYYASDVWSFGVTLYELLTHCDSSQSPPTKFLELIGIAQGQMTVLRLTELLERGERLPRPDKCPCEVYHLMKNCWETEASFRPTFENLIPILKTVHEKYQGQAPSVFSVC

On to `Cn1nc(-c2cn(C3CCCC3(C)C)c(=O)c3c(N)n[nH]c23)cc1CN1CCS(=O)(=O)CC1` (racemic) [Example 72, 3-amino-5-(2,2-dimethylcyclopentyl)-7-(5-((1,1-dioxidothiomorpholin-4-yl)methyl)-1-methyl-1H-pyrazol-3-yl)-1,5-dihydro-4H-pyrazolo[4,3-c]pyridin-4-one], for which the inhibition at 1 µM on JAK3 came out at 100%; on TYK2 it was 100%; at JAK1, 99%; on JAK2, 100%.

As for `Cn1nc(-c2cn(C(C3CC3)C(F)(F)F)c(=O)c3c(N)n[nH]c23)cc1N1CCOCC1` (centres unmarked) [Example 83, 3-amino-5-(1-cyclopropyl-2,2,2-trifluoroethyl)-7-(1-methyl-5-(morpholin-4-yl)-1H-pyrazol-3-yl)-1,5-dihydro-4H-pyrazolo[4,3-c]pyridin-4-one], the inhibition at 1 µM was determined as 100% on JAK3, 100% at TYK2, 99% on JAK1 and 100% on JAK2.

For the molecule `Cn1nc(-c2cn(C(C3CC3)C3CC3)c(=O)c3c(N)n[nH]c23)cc1C(C)(C)O` [Example 174, 3-amino-5-(dicyclopropylmethyl)-7-(5-(2-hydroxypropan-2-yl)-1-methyl-1H-pyrazol-3-yl)-1,5-dihydro-4H-pyrazolo[4,3-c]pyridin-4-one], the inhibition at 1 µM on JAK3 came to 99%; on TYK2 it was 98%; at JAK1, 99%; on JAK2 it was 98%.

As to `CC(C)[C@H](C)n1cc(-c2cc(N3CCOCC3=O)n(C)n2)c2[nH]nc(N)c2c1=O` [Example 49, 3-amino-5-((2S)-3-methylbutan-2-yl)-7-(1-methyl-5-(3-oxomorpholin-4-yl)-1H-pyrazol-3-yl)-1,5-dihydro-4H-pyrazolo[4,3-c]pyridin-4-one], the inhibition at 1 µM is 100% on JAK3, 99% at TYK2, 96% at JAK1 and 97% on JAK2.

`Cn1nc(-c2cn(C(C3CC3)C3CC3)c(=O)c3c(N)n[nH]c23)cc1N1CC[C@@H](O)C1` [Example 169, 3-amino-5-(dicyclopropylmethyl)-7-(5-((3R)-3-hydroxypyrrolidin-1-yl)-1-methyl-1H-pyrazol-3-yl)-1,5-dihydro-4H-pyrazolo[4,3-c]pyridin-4-one]: the inhibition at 1 µM on JAK3 was 99%; at TYK2, 98%; on JAK1, 98%; at JAK2 it was 98%.

With `Cn1nc(-c2cn(C(C3CC3)C3CC3)c(=O)c3c(N)n[nH]c23)cc1N1CCN2CCC[C@H]2C1` [Example 162, 3-amino-5-(dicyclopropylmethyl)-7-(5-((8aS)-hexahydropyrrolo[1,2-a]pyrazin-2(1H)-yl)-1-methyl-1H-pyrazol-3-yl)-1,5-dihydro-4H-pyrazolo[4,3-c]pyridin-4-one], the inhibition at 1 µM was found to be 100% at JAK3, 101% at TYK2, 99% at JAK1 and 100% at JAK2.

`CN1CCCN(c2cc(-c3cn(C(C4CC4)C4CC4)c(=O)c4c(N)n[nH]c34)nn2C)CC1` [Example 150, 3-amino-5-(dicyclopropylmethyl)-7-(1-methyl-5-(4-methyl-1,4-diazepan-1-yl)-1H-pyrazol-3-yl)-1,5-dihydro-4H-pyrazolo[4,3-c]pyridin-4-one]: the inhibition at 1 µM was determined as 101% on JAK3, 102% on TYK2, 98% on JAK1 and 100% at JAK2.

Consider `CC(C)[C@H](C)n1cc(-c2cc(N3CCC[C@@H]3CO)n(C)n2)c2[nH]nc(N)c2c1=O` [Example 22, 3-amino-7-(5-((2R)-2-(hydroxymethyl)pyrrolidin-1-yl)-1-methyl-1H-pyrazol-3-yl)-5-((2S)-3-methylbutan-2-yl)-1,5-dihydro-4H-pyrazolo[4,3-c]pyridin-4-one], for which the inhibition at 1 µM on JAK3 was 99%; at TYK2, 99%; at JAK1, 96%; at JAK2, 98%.

As to `CN(C)[C@H]1CCN(c2cc(-c3cn(C(C4CC4)C4CC4)c(=O)c4c(N)n[nH]c34)nn2C)C1` [Example 160, 3-amino-5-(dicyclopropylmethyl)-7-(5-((3S)-3-(dimethylamino)pyrrolidin-1-yl)-1-methyl-1H-pyrazol-3-yl)-1,5-dihydro-4H-pyrazolo[4,3-c]pyridin-4-one], the inhibition at 1 µM on JAK3 turned out to be 100%; at TYK2 it was 100%; at JAK1 it was 99%; on JAK2 it was 100%.

Turning to `Cn1nc(-c2cn(C(C3CC3)C3CC3)c(=O)c3c(N)n[nH]c23)cc1N1C2CCC1COC2` [Example 151, 3-amino-5-(dicyclopropylmethyl)-7-(1-methyl-5-(3-oxa-8-azabicyclo[3.2.1]oct-8-yl)-1H-pyrazol-3-yl)-1,5-dihydro-4H-pyrazolo[4,3-c]pyridin-4-one], the inhibition at 1 µM on JAK3 amounted to 101%; at TYK2 it was 102%; on JAK1, 99%; on JAK2, 100%.

Turning to `Cn1nc(-c2cn(-c3c(F)cccc3F)c(=O)c3c(N)n[nH]c23)cc1N1CCC(C)(C#N)CC1` [Example 127, 1-(3-(3-amino-5-(2,6-difluorophenyl)-4-oxo-4,5-dihydro-1H-pyrazolo[4,3-c]pyridin-7-yl)-1-methyl-1H-pyrazol-5-yl)-4-methylpiperidine-4-carbonitrile], the inhibition at 1 µM on JAK3 came to 100%; at TYK2, 100%; at JAK1, 99%; at JAK2, 99%.

Values taken from patent publication US9637483B2, “Heterocyclic compound” (TAKEDA PHARMACEUTICAL COMPANY LIMITED, priority 2013, dated 2017).
